Results reported in patent US20230321181A1, “COMPOSITION FOR PREVENTION, IMPROVEMENT OR TREATMENT OF ALLERGIC DISEASE OR ITCHING COMPRISING PENTAPEPTIDE AS ACTIVE INGREDIENT” (CAREGEN CO, LTD., priority 2020, published 2023).

Legend:
[1] = High temperature stability during long-term storage at 45° C. (HPLC); format: physicochemical; settings: 1000 ppm in sterile distilled water, 7 to 75 days
Protocol: The peptide of the present invention consisting of the amino acid sequence of SEQ ID NO: 1 was dissolved in sterile distilled water at a concentration of 1000 ppm, stored at 45° C. for 7 days, 14 days, 28 days, 60 days and 75 days, followed by HPLC analysis.

[2] = High temperature stability at 121° C. (HPLC); format: physicochemical; settings: 1000 ppm in sterile distilled water, 15 and 30 minutes
Protocol: The peptide of the present invention was dissolved in sterile distilled water at a concentration of 1000 ppm, heated at 121° C. for 15 minutes and 30 minutes, followed by HPLC analysis.

[3] = tested on: mast cells (rat basophilic leukemia cell line, RBL-2H3); test: Degranulation (β-hexosaminidase release) in DNP-IgE/DNP-HSA stimulated mast cells; format: cell-based; settings: 10 μM or 100 μM, 30 min pretreatment, DNP-IgE sensitized, DNP-HSA 3 hours, vs control (NC)
Protocol: In order to confirm the effect of inhibiting allergic inflammatory response and improving atopic dermatitis by the pentapeptide of the present invention, the degree of degranulation was confirmed using mast cells (rat basophilic leukemia cell line, RBL-2H3).
Specifically, RBL-2H3 cells were inoculated into a 12-well plate at a density of 5×10^5 cells/well, and then cultured overnight at a 37° C., 5% CO2 incubator. Then, the cells were sensitized by adding DNP-IgE to a complete medium. After 3 hours, it was washed 3 times with DPBS and then PIPES buffer was added thereto. In addition, an immune response was induced by pretreatment with the pentapeptide of the present invention synthesized in Example 1 for 30 minutes and then with DNP-HSA for 3 hours. After that, 25 μL of the supernatant was recovered, 25 μL of the substrate solution (5 mM p-nitrophenyl-N-acetyl-β-D-glucosaminide dissolved in 0.2 M sodium citrate buffer, pH 4.5) was added thereto, and then incubated at 37° C. for 90 minutes to react. After the reaction, 200 μL of stop solution (0.1 M Na2CO3/NaHCO3, pH 10.0) was added to each well to stop the enzymatic reaction, and absorbance was measured at 405 nm using a microplate reader. β-hexosamidase secreted from the supernatant was quantified according to Equation 1 below after adding 0.5% Triton X-100 solution to the cells. […]

[4] = tested on: mast cells (rat basophilic leukemia cell line, RBL-2H3); test: Expression of inflammation-related cytokines in mast cells (RT-PCR); format: cell-based; settings: RBL-2H3, DNP-IgE sensitized, DNP-HSA 2 hours, vs control (NC)
Protocol: In order to confirm the effect of inhibiting allergic inflammatory response and improving atopic dermatitis by the pentapeptide of the present invention, the expression pattern of inflammation-related cytokines was confirmed using mast cells (rat basophilic leukemia cell line, RBL-2H3).
Specifically, RBL-2H3 cells were inoculated into a 12-well plate at a density of 5×10^5 cells/well, and then cultured overnight at a 37° C., 5% CO2 incubator. Then, the cells were sensitized by adding DNP-IgE to a complete medium. After 3 hours, it was washed 3 times with DPBS and then PIPES buffer was added thereto. In addition, an immune response was induced by pretreatment with the pentapeptide of the present invention synthesized in Example 1 for 30 minutes and then with DNP-HSA for 2 hours. At this time, 20 μg/mL of ketotifen was used as a positive control.
(§1) After recovering the cells and then isolating RNA, cDNA was synthesized from the isolated RNA using a cDNA synthesis kit (Intron, Korea). A polymerase chain reaction was performed using the synthesized cDNA, PCR premix (Intron, Korea) and IL-3, IL-4, and TNF-α primers, and the amplified PCR product was electrophoresed on an agarose gel to confirm a DNA band. The primer sequences used at this time are as shown in [Table 1].

mouse splenocytes = test: Expression of inflammation-related cytokines in splenocytes (RT-PCR); format: cell-based; settings: TNF-α induced, 30 minutes, vs control (NC)
Protocol: In order to confirm the effect of inhibiting allergic inflammatory response and improving atopic dermatitis by the pentapeptide of the present invention, the expression pattern of inflammation-related cytokines was confirmed using mouse splenocytes.
Specifically, after separating mouse splenocytes, the cells were inoculated into a 24-well plate at a density of 1×10^7 cells/well, and then cultured overnight at a 37° C., 5% CO2 incubator. After changing the medium to a serum-free medium, 4 hours later, the pentapeptide of the present invention and TNF-α were treated and cultured for 30 minutes. At this time, 20 μg/mL of ketotifen was used as a positive control.
as §1, with “synthesized” for “synthesized from the isolated RNA”, “TNF-α, IL-113” for “IL-3, IL-4,”, “COX-2” for “TNF-α”, “2].” for “1].”

Question: Which results are given for “KFLIK (Pentapeptide) [pentapeptide of the present invention]”?
Answer: high-temperature stability during long-term storage [1]: maintained stability for 75 days; high-temperature stability at maximum heating temperature [2]: maintained stability for 30 minutes; release amount of β-hexosamidase [3]: decreased in a concentration-dependent manner; expression of IL-3 [4]: significantly reduced; expression of IL-4 [4]: significantly reduced; expression of TNF-α [4]: significantly reduced; expression of COX-2 (mouse splenocytes): significantly reduced; expression of IL-1β (mouse splenocytes): significantly reduced; expression of TNF-α (mouse splenocytes): significantly reduced
